Test results reported in patent US8404672B2, “Substituted heterocyclic compounds” (Bristol-Meyers Squibb Company, priority 2009, dated 2013).

Assays:
circulating lymphocytes = assay: Blood Lymphocyte Reduction Assay (BLR) in rats; format: in vivo; settings: Lewis rats, oral, vs vehicle group
Protocol: Blood Lymphocyte Reduction Assay (BLR) in Rodents
Lewis rats or BALB/c mice were dosed orally with test article (as a solution or suspension in the vehicle) or vehicle alone (polyethylene glycol 300, “PEG300”). Blood was drawn at 4 hr and 24 h by retro-orbital bleeding. Blood lymphocyte counts were determined on an ADVIA® 120 Hematology Analyzer (Siemens Healthcare Diagnostics). The results were measured as a reduction in the percentage of circulating lymphocytes as compared to the vehicle treated group at the 4 hr and 24 hr measurement. The results represent the average results of all animals within each treatment group (n=3-4).
A compound of the present invention was tested in the Blood Lymphocyte Reduction assay (BLR) described hereinabove and the results are shown in Table D for rats and Table E for mice.

[1] = system: rat adjuvant-induced arthritis model (hind paw volume); assay: Rat Adjuvant Induced Arthritis Assay (AA); format: in vivo, Male Lewis rats; settings: for Paw Swelling on Day 20 (Mean): vehicle mean 1.11
Protocol: Rat Adjuvant Induced Arthritis Assay (AA)
Male Lewis rats (150-175 g; Harlan, n=8 treatment group) were immunized at the base of the tail with 100 μl of 10 mg/ml freshly ground Mycobacterium butyricum (Difco Laboratories) in incomplete Freund's adjuvant (sigma). Animals were dosed once daily with the test article (as a solution or suspension in the vehicle) or vehicle alone (polyethylene glycol 300, “PEG300”) starting from the day of immunization. The volumes of their hind paws were measured in a water displacement plethysmometer (Ugo Basile, Italy). The baseline paw measurements were taken before onset of the disease (between day 7 to day 10). The paw measurements were then taken three times a week until the end of the study on day 20. All procedures involving animals were reviewed and approved by the Institutional Animal Care Use Committee.
A compound of the present invention was tested in the Rat Adjuvant Induced Arthritis assay described hereinabove and the results are shown in Table F.

In the case of `O=C(O)C1CN(Cc2ccc(-c3noc(-c4onc(-c5ccccn5)c4C(F)(F)F)n3)cc2)C1` [Example 1, 1-(4-(5-(3-(Pyridin-2-yl)-4-(trifluoromethyl)isoxazol-5-yl)-1,2,4-oxadiazol-3-yl)benzyl)azetidine-3-carboxylic acid], the “% reduction in lymphocytes at 4 hr.” value (circulating lymphocytes; 0.3 mg/kg) is reported as 82%, the “% reduction in lymphocytes at 24 hr.” value (circulating lymphocytes; 0.3 mg/kg) is reported as 48% and the “% reduction in lymphocytes at 4 hr.” value (circulating lymphocytes; 1.0 mg/kg) is reported as 85%. The “% reduction in lymphocytes at 24 hr.” value (circulating lymphocytes; 1.0 mg/kg) was 80%, the “Paw Swelling on Day 20 (Mean)” value ([1]; 0.03 mg/kg once daily from day of immunization) was 1.48 mL and the “Paw Swelling on Day 20 (Mean)” value ([1]; 0.1 mg/kg once daily from day of immunization) was 1.41 mL. For the same molecule, the “Paw Swelling on Day 20 (Mean)” value ([1]; 0.5 mg/kg once daily from day of immunization) was 0.72 mL, the “Paw Swelling on Day 20 (Mean)” value ([1]; 3.0 mg/kg once daily from day of immunization) was 0.07 mL and the “disease progression as measured by paw swelling (in words)” value ([1]; Lewis rat, prophylactic oral dosing) was “inhibits disease progression”.
